Where a name gives a salt, the structure may show the parent alone.

In general, IC50 refers to the concentration needed to halve the response being measured.

Type in all cases: cell-based
Assay [1] relates to human platelet. The assay is described as follows: ADP-induced aggregation of human platelets (platelet-rich plasma), inhibition. The note with it: human PRP, 20 to 30×1e4 platelets/μl, 37° C., read-out: Inhibitory action for agglutination by ADP IC50. Here is the method: Inhibity effects on human platelet of the invention derivatives to evaluate the activity for inhibiting aggregation induced by ADP (adenosine diphosphate), thrombin, and fibrinogen were measured in accordance with the procedure as described below. (1) Preparation of platelet-rich plasma, washed platelets, and α-chymotrypsin-treated platelets Human whole blood withdrawn from human elbow vein into 10% volume of 3.8% sodium citrate was centrifuged at 135×g (1100 rpm) for 10 minutes, and the supernatant was collected as platelet-rich plasma (PRP). The residue was further centrifuged at 1600×g (3000 rpm) for 10 minutes, and the supernatant was collected as platelet-poor plasma (PPP). PRP and PPP were used for the measurement of the aggregation induced by ADP. In the meanwhile, PRP was applied to Sepharose CL-2B column (manufacture by Pharmacia) equilibrated with HEPES buffer, pH 7.4 containing 0.5% BSA and 5.5 mM glucose, and the fractions eluted in the void volume were collected as platelet-suspension, and used for the measurement of the aggregation induced by thrombin. In addition, washed platelet were treated with α-chymotrypsin of the final concentration of 10 U/ml for 30 minutes at room temperature. Then, the protease reaction was stopped by the addition of trypsin-chymotrypsin inhibitor (0.5 mg/ml), and α-chymotrypsin-treated platelet-suspension was used for the aggregation induced by fibrinogen. (2) Measurement of ADP-induced aggregation PRP was diluted with PPP to adjust the number of platelets to 20 to 30×1e4/μl, and the aggregation induced by ADP was measured with aggligometer (HEMATRACER VI, manufactured by NBS). 0.2 ml of PRP was placed in the cubette of the aggligometer with 25 μl of the test solution or physiological saline (control), and was incubated at 37° C. for 5 minutes with stirring (1000 rpm). Then, 25 μl of ADP solution was added and the time course of the light transmittance was recorded. The transmittance of PRP and PPP were calibrated as 0 and 100% respectively, and the maximum transmittance after adding the agonist was taken for the maximum aggregation. The concentration of 50% inhibition (IC50) was calculated from the proportion of the maximum aggregation with test solution to physiological saline.

Assay [2] relates to human platelet. In words: Thrombin-induced aggregation of human platelets (washed platelet suspension), inhibition. As to conditions: HEPES buffer pH 7.4, 2 mM CaCl2 and MgCl2, read-out: Inhibitory action for agglutination by thrombin IC50. Here is the method:
(§1) Inhibity effects on human platelet of the invention derivatives to evaluate the activity for inhibiting aggregation induced by ADP (adenosine diphosphate), thrombin, and fibrinogen were measured in accordance with the procedure as described below.
(§2) (1) Preparation of platelet-rich plasma, washed platelets, and α-chymotrypsin-treated platelets
(§3) Human whole blood withdrawn from human elbow vein into 10% volume of 3.8% sodium citrate was centrifuged at 135×g (1100 rpm) for 10 minutes, and the supernatant was collected as platelet-rich plasma (PRP). The residue was further centrifuged at 1600×g (3000 rpm) for 10 minutes, and the supernatant was collected as platelet-poor plasma (PPP). PRP and PPP were used for the measurement of the aggregation induced by ADP. In the meanwhile, PRP was applied to Sepharose CL-2B column (manufacture by Pharmacia) equilibrated with HEPES buffer, pH 7.4 containing 0.5% BSA and 5.5 mM glucose, and the fractions eluted in the void volume were collected as platelet-suspension, and used for the measurement of the aggregation induced by thrombin. In addition, washed platelet were treated with α-chymotrypsin of the final concentration of 10 U/ml for 30 minutes at room temperature. Then, the protease reaction was stopped by the addition of trypsin-chymotrypsin inhibitor (0.5 mg/ml), and α-chymotrypsin-treated platelet-suspension was used for the aggregation induced by fibrinogen.
(3) Measurement of thrombin-induced aggregation
The platelet-suspension was diluted with HEPES buffer, pH 7.4 to adjust the number of platelets to 20 to 30×1e4/μl, and calcium chloride and magnesium chloride were respectively added to 2 mM (final concentration). The aggregation induced by thrombin was measured with this platelet-suspension and HEPES buffer (contrast) by the same procedure as the measurement of the aggregation induced by the ADP. The concentration of 50% inhibition (IC50) was calculated from the proportion of the maximum aggregation with test solution to physiological saline.

Assay [3] relates to human platelet. The assay is described as follows: Fibrinogen-induced aggregation of α-chymotrypsin-treated human platelets, inhibition. As to conditions: fibrinogen (0.4 mg/ml), HEPES buffer pH 7.4, PGE1 1 μM, read-out: Inhibitory action for agglutination by fibrinogen IC50. On the procedure: as §1, §2
as §3, with “In addition, washed platelet were treated with α-chymotrypsin of the final concentration of 10 U/ml for 30 minutes at room temperature. Then, the protease reaction was stopped by the addition of trypsin-chymotrypsin inhibitor (0.5 mg/ml), and α-chymotrypsin-treated platelet-suspension was used for the aggregation induced by fibrinogen.” left out
α-chymotrypsin-treated platelet-suspension was diluted with HEPES buffer, pH 7.4 to adjust the number of platelets to 20 to 30×1e4/μl. […] The aggregation induced by fibrinogen (0.4 mg/ml) was measured with this platelet-suspension and the HEPES buffer (contrast). […]

For the molecule `O=C(O)CN1CCc2ccc(NC(=O)COC3CCNCC3)cc2C1` [Ex. 1, 7-(piperidine-4-yloxyacetylamino)-2-carboxymethyl-1,2,3,4-tetrahydroisoquinoline], the values for the IC50 in assay [1] and in assay [2] were 5 µM and 4.8 µM, respectively. `O=C(O)CCN1CCc2ccc(NC(=O)COC3CCNCC3)cc2C1` [Ex. 2, 7-(piperidine-4-yloxyacetylamino)-2-carboxyethyl-1,2,3,4-tetrahydroisoquinoline]: the figures for the IC50 in assay [1], in assay [2] and in assay [3] were 0.097 µM, 0.066 µM and 0.038 µM, respectively. For `O=C(O)CCCN1CCc2ccc(NC(=O)COC3CCNCC3)cc2C1` [Ex. 3, 7-(piperidine-4-yloxyacetylamino)-2-(3-carboxypropyl)-1,2,3,4-tetrahydroisoquinoline], the IC50 in assay [1] and in assay [2] was greater than 10 µM in each case. For `CN(C(=O)COC1CCNCC1)c1ccc2c(c1)CN(CCC(=O)O)CC2` [Ex. 5, 7-[(piperidine-4-yloxyacetyl)methylamino]-2-[2-(carboxy)ethyl]-1,2,3,4-tetrahydroisoquinoline], the half-maximal inhibitory concentration (IC50) is 81 µM in assay [1] and 43 µM in assay [2].

On to `O=C(O)CCN1CCc2ccc(NC(=O)COC3CCNCC3)cc2C1c1ccccc1` (centres unmarked) [Ex. 6, 2-(carbonylethyl)-1-phenyl-7-(piperidine-4-yloxyacetylamino)-1,2,3,4-tetrahydroisoquinoline], for which the values for the half-inhibitory concentration (IC50) in assay [1] and in assay [2] were 2.9 µM and 1.9 µM, respectively. With `CC1CC(OCC(=O)Nc2ccc3c(c2)CN(CCC(=O)O)CC3)CC(C)N1` (centres unmarked) [Ex. 7, 7-(2,6-dimethylpiperidine-4-yloxyacetylamino)-2-(2-carboxyethyl)-1,2,3,4-tetrahydroisoquinoline], the IC50 in assay [1] was greater than 10 µM. Consider `CC1CNCCC1OCC(=O)Nc1ccc2c(c1)CN(CCC(=O)O)CC2` (centres unmarked) [Ex. 8, 7-(3-methylpiperidine-4-yloxyacetylamino)-2-(2-carboxyethyl)-1,2,3,4-tetrahydroisoquinoline], for which the IC50 in assay [1] amounted to 0.23 µM. In the case of `CC(CC(=O)O)N1CCc2ccc(NC(=O)COC3CCNCC3)cc2C1` (centres unmarked) [Ex. 9, 7-(piperidine-4-yloxyacetylamino)-2-(2-carboxy-1-methylethyl)-1,2,3,4-tetrahydroisoquinoline], the IC50 in assay [1] is 0.32 µM.

`CC1c2cc(NC(=O)COC3CCNCC3)ccc2CCN1CCC(=O)O` (centres unmarked) [Ex. 10, 2-(2-carboxyethyl)-1-methyl-7-(piperidine-4-yloxyacetylamino)-1,2,3,4-tetrahydroisoquinoline hydrochloride]: the IC50 in assay [1] was found to be 0.38 µM. For `CC1CN(CCC(=O)O)Cc2cc(NC(=O)COC3CCNCC3)ccc21` (centres unmarked) [Ex. 11, 2-(2-carboxyethyl)-4-methyl-7-(piperidine-4-yloxyacetylamino)-1,2,3,4-tetrahydroisoquinoline hydrochloride], the IC50 in assay [1] came to 0.15 µM. `CC1(C)Cc2ccc(NC(=O)COC3CCNCC3)cc2CN1CCC(=O)O` [Ex. 12, 2-(2-carboxyethyl)-3,3-dimethyl-7-(piperidine-4-yloxyacetylamino)-1,2,3,4-tetrahydroisoquinoline hydrochloride]: in assay [1], the IC50 came out at 12 µM.

The values above are taken from patent US5789595A, “Tetrahydroisoquinoline derivative and medical preparation containing the same” (Terumo Kabushiki Kaisha, priority 1994, dated 1998).
